Source: US12378243B2, “Quinoline compounds as inhibitors of KRAS” (Incyte Corporation, priority 2021, dated 2025)

What was measured:
KRAS G12D = KRAS G12D (Homo sapiens, UniProt P01116, G12D); test: GDP-GTP exchange assay, KRAS G12D; type: biochemical; settings: bodipy-loaded KRAS G12D 2.5 nM, GppNHp 500 uM, SOS1 150 nM; 4 hours pre-incubation, 2 hours incubation; read-out: G12D_exchange
Method: Inhibitors were serially diluted in DMSO and a volume of 0.1 μL was transferred to the wells of a black low volume 384-well plate. […] The exchange was initiated by the addition of a 5 μL/well volume containing 1 mM GppNHp and 300 nM SOS1 in assay buffer. […] The reaction plates were incubated at ambient temperature for 2 hours, a time estimated for complete GDP-GTP exchange in the absence of inhibitor.
Either GraphPad prism or Genedata Screener SmartFit was used to analyze the data. The IC50 values were derived by fitting the data to a four parameter logistic equation producing a sigmoidal dose-response curve with a variable Hill coefficient.
“NA” indicates IC50 not available.

KRAS G12V mutant = KRAS G12V mutant (Homo sapiens, UniProt P01116, G12V); test: GDP-GTP exchange assay, KRAS G12V; type: biochemical; settings: bodipy loaded KRAS G12V 2.5 nM; 3 hours incubation after adding GppNHp-SOS1 mixture; read-out: G12V_exchange
Caco-2 cells = test: Caco2 assay (permeability, A-B); type: in vitro ADME; settings: Table 3; Papp absorptive direction (A-B), test compound 50 μM, 120 minutes at 37° C.
Method: Caco-2 cells are grown at 37° C. in an atmosphere of 5% CO2 in DMEM growth medium supplemented with 10% (v/v) fetal bovine serum, 1% (v/v) nonessential amino acids, penicillin (100 U/mL), and streptomycin (100 μg/mL). Confluent cell monolayers are subcultured every 7 days or 4 days for Caco-2 by treatment with 0.05% trypsin containing […]. Caco-2 cells are seeded in 96-well Transwell plates. The seeding density for Caco-2 cells is 14,000 cells/well. DMEM growth medium is replaced every other day after seeding. Cell monolayers are used for transport assays between 22 and 25 days for Caco-2 cells.
Cell culture medium is removed and replaced with HBSS. To measure the TEER, the HBSS is added into the donor compartment (apical side) and receiver compartment (basolateral side). The TEER is measured by using a REMS Autosampler to ensure the integrity of the cell monolayers. Caco-2 cell monolayers with TEER values ≥300 Ω·cm^2 are used for transport experiments. To determine the Papp in the absorptive direction (A-B), solution of test compound (50 μM) in HBSS is added to the donor compartment (apical side), while HBSS solution with 4% BSA is added to the receiver compartment (basolateral side). The apical volume was 0.075 mL, and the basolateral volume is 0.25 mL. The incubation period is 120 minutes at 37° C. in an atmosphere of 5% CO2. At the end of the incubation period, samples from the donor and receiver sides are removed and an equal volume of acetonitrile is added for protein precipitation. The supernatants are collected after centrifugation (3000 rpm, Allegra X-14R Centrifuge from Beckman Coulter, Indianapolis, IN) for LCMS analysis. The permeability value is determined according to the equation:
[formula] • where the flux rate (F, mass/time) is calculated from the slope of cumulative amounts of compound of interest on the receiver side, SA is the surface area of the cell membrane, VD is the donor volume, and MD is the initial amount of the solution in the donor chamber.
The symbol “+” indicates a Caco-2 value of […], “++” indicates a Caco-2 value of >0.5 but ≤1; and “+++” indicates a Caco-2 value of >1. “NA” indicates IC50 not available.

Chain of KRAS G12V mutant (P01116 1-188 isoform P01116-2 G12V): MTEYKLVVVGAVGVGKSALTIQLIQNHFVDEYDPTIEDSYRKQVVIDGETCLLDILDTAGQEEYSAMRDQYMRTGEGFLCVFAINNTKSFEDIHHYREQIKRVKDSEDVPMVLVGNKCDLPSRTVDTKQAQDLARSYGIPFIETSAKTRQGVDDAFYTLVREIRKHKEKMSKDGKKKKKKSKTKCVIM
Chain of KRAS G12D (P01116 1-188 isoform P01116-2 G12D): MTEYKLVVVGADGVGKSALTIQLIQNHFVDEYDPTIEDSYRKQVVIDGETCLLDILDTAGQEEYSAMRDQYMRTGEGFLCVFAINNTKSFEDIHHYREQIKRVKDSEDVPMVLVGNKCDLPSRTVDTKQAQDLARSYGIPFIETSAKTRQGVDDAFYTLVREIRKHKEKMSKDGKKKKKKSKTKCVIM

Compound | IC50 (KRAS G12D) | IC50 (KRAS G12V mutant) | Caco-2 (Caco-2 cells)
Cc1cc2c(O[C@@H](C)[C@@H]3CCCN3C)nc3c(F)c(-c4c[nH]c5c(F)cc(F)cc45)c(CCC#N)cc3c2n1[C@H]1[C@H]2CN[C@@H]1C2 [Example 2, 3-(1-((1R,4R,5S)-2-Azabicyclo[2.1.1]hexan-5-yl)-7-(5,7-difluoro-1H-indol-3-yl)-6-fluoro-2-methyl-4-((S)-1-((S)-1-methylpyrrolidin-2-yl)ethoxy)-1H-pyrrolo[3,2-c]quinolin-8-yl)propanenitrile] | < 100 nM | < 100 nM | + (a Caco-2 value of 50.5)
Cc1cc2c(-c3c(CCC#N)cc4c(nc(O[C@@H](C)[C@@H]5CCCN5C)c5cc(C)n([C@H]6[C@H]7CN[C@@H]6C7)c54)c3F)c[nH]c2cc1F [Example 3, 3-(1-((1R,4R,5S)-2-Azabicyclo[2.1.1]hexan-5-yl)-6-fluoro-7-(6-fluoro-5-methyl-1H-indol-3-yl)-2-methyl-4-((S)-1-((S)-1-methylpyrrolidin-2-yl)ethoxy)-1H-pyrrolo[3,2-c]quinolin-8-yl)propanenitrile] | < 100 nM | < 100 nM | + (a Caco-2 value of 50.5)
C[C@H](Oc1nc2c(F)c(-c3cccc(Cl)c3Cl)c(CCC#N)cc2c2c1cc(CCC(=O)N1CCC1)n2[C@H]1[C@H]2CN[C@@H]1C2)[C@@H]1CCCN1C [Example 4, 3-(2-(3-(Azetidin-1-yl)-3-oxopropyl)-1-((1R,4R,5S)-2-azabicyclo[2.1.1]hexan-5-yl)-7-(2,3-dichlorophenyl)-6-fluoro-4-((S)-1-((S)-1-methylpyrrolidin-2-yl)ethoxy)-1H-pyrrolo[3,2-c]quinolin-8-yl)propanenitrile] | < 100 nM | < 100 nM | + (a Caco-2 value of 50.5)
Cc1cc2c(nc(O[C@@H](C)[C@@H]3CCCN3C)c3cc(CN4CCOC4=O)n([C@H]4[C@H]5CN[C@@H]4C5)c32)c(F)c1-c1cc(O)cc2ccccc12 [Example 5, 3-((1-((1R,4R,5S)-2-Azabicyclo[2.1.1]hexan-5-yl)-6-fluoro-7-(3-hydroxynaphthalen-1-yl)-8-methyl-4-((S)-1-((S)-1-methylpyrrolidin-2-yl)ethoxy)-1H-pyrrolo[3,2-c]quinolin-2-yl)methyl)oxazolidin-2-one] | < 100 nM | < 100 nM | + (a Caco-2 value of 50.5)
Cc1cc2c(nc(O[C@@H](C)[C@@H]3CCCN3C)c3cc(C)n([C@H]4[C@H]5CN[C@@H]4C5)c32)c(F)c1-c1cccc2cccc(C#N)c12 [Example 6, 8-(1-((1R,4R,5S)-2-Azabicyclo[2.1.1]hexan-5-yl)-6-fluoro-2,8-dimethyl-4-((S)-1-((S)-1-methylpyrrolidin-2-yl)ethoxy)-1H-pyrrolo[3,2-c]quinolin-7-yl)-1-naphthonitrile] | < 100 nM | < 100 nM | ++ (a Caco-2 value of >0.5 but ≤1)
Cc1nc2c(F)c(-c3cccc4ccc(F)cc34)c(CCC#N)cc2c2c1cc(CN1CCN(C)CC1=O)n2[C@H]1[C@H]2CN[C@@H]1C2 [Example 15, 3-(1-((1R,4R,5S)-2-Azabicyclo[2.1.1]hexan-5-yl)-6-fluoro-7-(7-fluoronaphthalen-1-yl)-4-methyl-2-((4-methyl-2-oxopiperazin-1-yl)methyl)-1H-pyrrolo[3,2-c]quinolin-8-yl)propanenitrile] | < 100 nM | 100 to 1000 nM | ++ (a Caco-2 value of >0.5 but ≤1)
CCOc1nc2c(F)c(-c3cc(O)cc(Cl)c3Cl)c(CCC#N)cc2c2c1cc(CN1CCN(C(C)C)CC1=O)n2[C@H]1[C@H]2CN[C@@H]1C2 [Example 16, 3-(1-((1R,4R,5S)-2-azabicyclo[2.1.1]hexan-5-yl)-7-(2,3-dichloro-5-hydroxyphenyl)-4-ethoxy-6-fluoro-2-((4-isopropyl-2-oxopiperazin-1-yl)methyl)-1H-pyrrolo[3,2-c]quinolin-8-yl)propanenitrile] | < 100 nM | < 100 nM | + (a Caco-2 value of 50.5)
CN(C)C1(C)CN(c2nc3c(F)c(-c4cccc5ccc(F)cc45)c(CCC#N)cc3c3c2cc(CN2CCOCC2=O)n3[C@H]2[C@H]3CN[C@@H]2C3)C1 [Example 17, 3-(1-((1R,4R,5S)-2-Azabicyclo[2.1.1]hexan-5-yl)-4-(3-(dimethylamino)-3-methylazetidin-1-yl)-6-fluoro-7-(7-fluoronaphthalen-1-yl)-2-((3-oxomorpholino)methyl)-1H-pyrrolo[3,2-c]quinolin-8-yl)propanenitrile] | < 100 nM | < 100 nM | + (a Caco-2 value of 50.5)

The remaining lines, values ahead:

IC50 (KRAS G12D) | IC50 (KRAS G12V mutant) | Caco-2 (Caco-2 cells) | Compound
< 100 nM | < 100 nM | + (a Caco-2 value of 50.5) | CCOc1nc2c(F)c(-c3cc(O)cc4ccccc34)c(CCC#N)cc2c2c1cc(C(C)N1CCOCC1=O)n2[C@H]1[C@H]2CN[C@@H]1C2 (stereo partly drawn) [Example 18, 3-(1-((1R,4R,5S)-2-azabicyclo[2.1.1]hexan-5-yl)-4-ethoxy-6-fluoro-7-(3-hydroxynaphthalen-1-yl)-2-(1-(3-oxomorpholino)ethyl)-1H-pyrrolo[3,2-c]quinolin-8-yl)propanenitrile]
< 100 nM | < 100 nM | + (a Caco-2 value of 50.5) | C[C@H](Oc1nc2c(F)c(-c3cc(O)cc4ccccc34)c(CCC#N)cc2c2c1cc(-c1cccnc1)n2C1C2CNC1C2)[C@@H]1CCCN1C (stereo partly drawn) [Example 19, 3-(1-((endo)-2-Azabicyclo[2.1.1]hexan-5-yl)-6-fluoro-7-(3-hydroxynaphthalen-1-yl)-4-((S)-1-((S)-1-methylpyrrolidin-2-yl)ethoxy)-2-(pyridin-3-yl)-1H-pyrrolo[3,2-c]quinolin-8-yl)propanenitrile]
< 100 nM | < 100 nM | +++ (a Caco-2 value of >1) | CC(=O)N1CC[C@H](n2ncc3c(O[C@@H](C)[C@@H]4CCCN4C)nc4c(F)c(-c5cccc6cccc(C#N)c56)c(Cl)cc4c32)C[C@H]1CC#N [Example 25, 8-(1-((2S,4S)-1-acetyl-2-(cyanomethyl)piperidin-4-yl)-8-chloro-6-fluoro-4-((S)-1-((S)-1-methylpyrrolidin-2-yl)ethoxy)-1H-pyrazolo[4,3-c]quinolin-7-yl)-1-naphthonitrile]
< 100 nM | < 100 nM | + (a Caco-2 value of 50.5) | Cc1cc2c(-n3cncn3)nc3c(F)c(-c4cc(O)cc5ccc(F)cc45)c(CCC#N)cc3c2n1[C@H]1[C@H]2CN[C@@H]1C2 [Example 26, 3-(1-((1R,4R,5S)-2-Azabicyclo[2.1.1]hexan-5-yl)-6-fluoro-7-(7-fluoro-3-hydroxynaphthalen-1-yl)-2-methyl-4-(1H-1,2,4-triazol-1-yl)-1H-pyrrolo[3,2-c]quinolin-8-yl)propanenitrile]
< 100 nM | < 100 nM | + (a Caco-2 value of 50.5) | Cc1cc2c(O[C@@H](C)[C@@H]3CCCN3C)nc3c(F)c(-c4cccc5ccc(F)cc45)c(CCC#N)cc3c2n1[C@H]1[C@H]2CN[C@@H]1C2 [Example 27, 3-(1-((1R,4R,5S)-2-Azabicyclo[2.1.1]hexan-5-yl)-6-fluoro-7-(7-fluoronaphthalen-1-yl)-2-methyl-4-((S)-1-((S)-1-methylpyrrolidin-2-yl)ethoxy)-1H-pyrrolo[3,2-c]quinolin-8-yl)propanenitrile]
